Data: ChEMBL document CHEMBL1255413, “Proteus mirabilis pmrI, an RppA-regulated gene necessary for polymyxin B resistance, biofilm formation, and urothelial cell invasion” (2010)
Converted amounts (≈) assume the structure as drawn.

Legend:
Proteus mirabilis [1] = experiment: Antimicrobial activity against PpmrI knockout mutant Proteus mirabilis dIp after 16 to 18 hrs by broth microdilution method; assay type: functional
Proteus mirabilis [2] = experiment: Antimicrobial activity against wild type Proteus mirabilis N2 […] after 16 to 18 hrs by broth microdilution method; assay type: functional
Proteus mirabilis [3] = experiment: Antimicrobial activity against PpmrI knockout mutant Proteus mirabilis dIpc complemented with PPmrI gene after 16 to 18 hrs by broth microdilution method; assay type: functional
Proteus mirabilis [4] = experiment: Antimicrobial activity against Proteus mirabilis I2 mutant after 16 to 18 hrs by broth microdilution method; assay type: functional, organism-based

Compound | MIC (Proteus mirabilis [1]) [µg/mL] | MIC (Proteus mirabilis [2]) [µg/mL] | MIC (Proteus mirabilis [3]) [µg/mL] | MIC (Proteus mirabilis [4]) [µg/mL]
CC1(C)S[C@@H]2[C@H](NC(=O)[C@H](N)c3ccccc3)C(=O)N2[C@H]1C(=O)O [AMPICILLIN] | 16 (≈ 45.8 µM) | 16 (≈ 45.8 µM) | 16 (≈ 45.8 µM) | 
C[C@@H](O)[C@H]1C(=O)N2C(C(=O)O)=C(SCCNC=N)C[C@H]12 [IMIPENEM ANHYDROUS] | 0.25 (≈ 0.835 µM) | 2 (≈ 6.68 µM) | 2 (≈ 6.68 µM) | 
CN(C)[C@@H]1C(O)=C(C(N)=O)C(=O)[C@@]2(O)C(O)=C3C(=O)c4c(O)cccc4[C@@](C)(O)[C@H]3C[C@@H]12 [TETRACYCLINE] | 32 (≈ 72 µM) | 32 (≈ 72 µM) | 32 (≈ 72 µM) | 
GENTAMICIN | 4 | 4 | 4 | 
POLYMYXIN B | 4 |  |  | 4
